Measurements as given in patent US5726311A, “7-disubstituted-methyl-4-oxo-3H,5H-pyrrolo[3,2-d]pyrimidine and pharmaceutical uses and compositions containing the same” (BioCryst Pharmaceuticals, Inc., priority 1995, dated 1998).

Target: T1, purine nucleoside phosphorylase (PNP) (Bos taurus, UniProt P55859)
T1 sequence (P55859 1-289): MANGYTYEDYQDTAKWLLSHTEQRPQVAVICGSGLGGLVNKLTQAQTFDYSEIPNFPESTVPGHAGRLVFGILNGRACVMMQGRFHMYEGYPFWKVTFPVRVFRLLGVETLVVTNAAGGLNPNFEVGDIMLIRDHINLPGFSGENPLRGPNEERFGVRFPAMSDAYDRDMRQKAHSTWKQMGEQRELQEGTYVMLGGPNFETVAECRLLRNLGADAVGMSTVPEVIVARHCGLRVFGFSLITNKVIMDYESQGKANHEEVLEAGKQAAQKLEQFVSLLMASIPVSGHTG
Assay: Purine nucleoside phosphorylase (PNP) radiochemical enzyme assay, [14C]-hypoxanthine formation from [14C]-inosine

[1] = IC50 (nM), table of Examples 36-42, phosphate concentration not printed in table (Ex. 37 and 38 values agree with 1 mM phosphate in text)
[2] = IC50 (PNP inhibition), 1 mM phosphate, calf spleen PNP
[3] = IC50 (PNP inhibition), 50 mM phosphate, calf spleen PNP

SMILES | IC50 [1] | IC50 [2] | IC50 [3] | enzyme inhibition activity (IC50), in words (phosphate concentration not stated)
Nc1nc(O)c2[nH]c(N)c(Cc3cccs3)c2n1 [2,6-diamino-3,5-dihydro-7-(2-thienylmethyl)-4H-pyrollo-[3,2-d]pyrimidine-4-one, reference compound] | 160 nM |  |  | 
N#CCC(c1cc(Cl)cc(Cl)c1Cl)c1c[nH]c2c(=O)[nH]c(N)nc12 (stereo not shown) [Example 8A] |  | 640 nM | 10000 nM | 
Nc1nc(O)c2[nH]cc(C(CC(=O)O)c3ccccc3)c2n1 (stereo not shown) [Example 15, 3-(2-amino-4-oxo-3H,5H-pyrrolo[3,2-d]pyrimidin-7-yl)-3-phenylpropanoic acid] |  | 12 nM | 190 nM | 
COC(=O)CC(c1ccccc1)c1c[nH]c2c(=O)[nH]c(N)nc12 (stereo not shown) [Example 19, 3-(2-amino-4-oxo-3H,5H-pyrrolo[3,2-d]pyrimidin-7-yl)-3-phenylpropanoic acid, methyl ester] |  |  |  | Significant activity
N#CCC(c1cccc(Cl)c1)c1c[nH]c2c(=O)[nH]cnc12 (stereo not shown) [Example 40] | 10 nM |  |  | 
